Assays:
[1] = target: T1, SALDAP (6xHis-SALDAP), salicylaldehyde dehydrogenase (soil metagenome, UniProt Z9QUQ6R3A5); experiment: X-ray crystallography, electron density in active site; type: binding; conditions: two conformations; structure first reported in the group's earlier paper
T1 construct: full-length ORF, N-terminal 6xHis tag kept (pLATE51), E. coli BL21(DE3); homodimer about 110-115 kDa

[2] = target: T1, SALDAP (6xHis-SALDAP), salicylaldehyde dehydrogenase; experiment: differential scanning fluorimetry, SYPRO Orange; type: binding; conditions: 50 mM HEPES pH 7.4
Excerpt: differential scanning fluorimetry, SYPRO Orange on SALDAP (6xHis-SALDAP), salicylaldehyde dehydrogenase

[3] = target: T1, SALDAP (6xHis-SALDAP), salicylaldehyde dehydrogenase; experiment: NADH formation at […] nm, substrate inhibition fit; type: biochemical; conditions: 50 µM NAD+, 100 mM Tricine pH 8.0, 25 °C, 1.7% DMSO

O=Cc1ccc2ccccc2c1 [2-naphthaldehyde]
X-ray crystallography, electron density in active site [1]: electron density as seen in the active site of SALDAP after refinement using 2-naphthaldehyde

O=Cc1ccc(O)c(O)c1 [3,4-dihydroxybenzaldehyde]
Tm ^oC ([2]; 2 mM ligand with 1.5 mM NAD+): 71.0 ± 0.0 °C

O=Cc1ccccc1 [Benzaldehyde]
Ki [3]: 5.02 ± 1.84 µM

NC(=O)c1ccc[n+]([C@@H]2O[C@H](COP(=O)(O)OP(=O)(O)OC[C@H]3O[C@@H](n4cnc5c(N)ncnc54)[C@H](O)[C@@H]3O)[C@@H](O)[C@H]2O)c1 [NAD+]
Tm ^oC ([2]; 1.5 mM NAD+ alone): 68.7 ± 0.3 °C

COc1cc(C=O)ccc1O [Vanillin]
Tm ^oC ([2]; 2 mM ligand with 1.5 mM NAD+): 69.6 ± 0.4 °C

O=Cc1ccc(O)cc1 [4-hydroxybenzaldehyde]
Tm ^oC ([2]; 2 mM ligand with 1.5 mM NAD+): 70.0 ± 0.3 °C

From PMC12718228 (Applied Biochemistry and Biotechnology, 2025)
